# What was measured:
# Type in all cases: cell-based
# [1] = test system: 17 Diffuse Large B Cell Lymphoma (DLBCL) cell lines; assay: High throughput screen of ibrutinib combinations, growth inhibition by ATP-lite at 72h; settings: for synergy in combination with JNJ-02 (ibrutinib): synergy score heat map across DLBCL cell lines
# Protocol: (§1) A high throughput screen of 17 Diffuse Large B Cell Lymphoma (DLBCL) cell lines was conducted for their response to Ibrutinib in combination with 99 anti-cancer agents selected from among standard-of-care and emerging therapeutics and targeted agents. The goal of the project was to identify and quantify specific synergies with Ibrutinib to identify pathways that contribute to clinical response. Examples of therapeutics tested included first-line DLBCL therapeutics: RCHOP (Rituximab, Cyclophosphamide, Doxorubicin, Vincristine, Prednisone) or EPOCH (+Etoposide) and Second-line therapeutics: Dexamethasone, Prednisone, Etoposide, Vincristine, Gemcitabine, Carboplatin, Ifosfamide, Bendamustine, Cyclophosphamide, Rituximab, Lenalidomide, and Anthracycline.
# (§2) The 17 DLBCL cell lines tested were DB, DOHH-2, HBL-1, HT, NU-DHL-1, OCI-Lyl, OCI-Ly10, OCI-Ly18, OCI-Ly19, OCI-Ly3, OCI-Ly7, Pfeiffer, SU-DHL-5, SU-DHL-6, SU-DHL-8, TMD8 and Toledo. Eight of the cell lines were screened in human MSC-conditioned medium (hMSC-CM) and nine of the cell lines were screened with hMSC-CM+1 ug/ml each of anti-IgM and anti-IgG. The assay was performed in a 384-well format (6×6 HFDR format) with intra-plate replicates (Ibrutinib n=4; enhancers n=2; combination n=1), inter-plate replicates (n=3) and 20 self-crosses. The dose-response matrix screening was designed to detect both types of multi-target interaction, potency shifts or efficacy boosts.
# (§3) The cells were seeded 24h before dosing. Cells were dosed with ibrutinib (JNJ-02) and the test compounds at varying concentrations as depicted in FIGS. 18-39G. At T0 (0h after dosing) and T72 (72h after dosing) ATP-lite raw values were obtained. Growth inhibition of the cell culture was measured as follows:
# (§4) Measure untreated at time 0 (V0) (the time at which drugs are added), treated (T) and untreated (V) (at assay end point (72h).
# (§5) 100% (Total growth inhibition)—treatment viability signal and 0h vehicle viability signal are matched. (T=V0)
# (§6) 200% (complete kill)—treatment viability signal is 0. (T=0)
# (§7) The growth inhibition measure is sensitive to the cell doubling time (e.g., it measures the fraction of (net) growth inhibition during the assay period). Growth inhibition gives additional valuable information. For example, 0%-100% (growth inhibition) represents % reduction in net increase in the cells with vehicle during drug incubation period, 100% represents no net increase in viability signal at T72 and T0) (i.e., cytostatic) and 100%-200% (killing zone) represents cytotoxic effects.
# [2] = test system: DOHH-2 cell line; assay: High throughput combination screen, growth inhibition (ATP-lite)
# Protocol: as §1, §2, §3, §4, §5, §6, §7
# [3] = test system: OCI-Ly18 cell line; assay: as above
# Protocol: as §1, §2, §3, §4, §5, §6, §7
# [4] = test system: TMD8 cell line; assay: as above
# Protocol: as §1, §2, §3, §4, §5, §6, §7
Molecule,synergy in combination with JNJ-02 (ibrutinib) [1],further results
CN(C)CC[C@H](CSc1ccccc1)Nc1ccc(S(=O)(=O)NC(=O)c2ccc(N3CCN(Cc4ccccc4-c4ccc(Cl)cc4)CC3)cc2)cc1[N+](=O)[O-] [ABT-737],strong synergy and good breadth of activity,–
CC(C)c1c(C(=O)Nc2ccccc2)c(-c2ccccc2)c(-c2ccc(F)cc2)n1CC[C@@H](O)C[C@@H](O)CC(=O)O [Atrovastatin],synergizes,–
CCOC(=O)C1=C(N)Oc2ccc(Br)cc2C1C(C#N)C(=O)OCC (stereo not drawn) [HA14-1],modest synergy in selected cell lines,–
O=C(c1ccc(Nc2nccc(-c3cc4ccccc4s3)n2)cc1)N1CCC(N2CCCC2)CC1 [IKK inhibitor VII],strong synergy and good breadth of activity,–
Nc1cccc2c1CN(C1CCC(=O)NC1=O)C2=O (stereo not drawn) [Lenalidomide],synergized,"activity as a single agent ([1]; single agent, cell line not given): not active as a single agent; synergy with JNJ-02 (ibrutinib) ([2]; combination with ibrutinib): does not show synergy; activity as a single agent ([2]; single agent): active as a single agent; synergy with JNJ-02 (ibrutinib) ([3]; combination with ibrutinib): does not show synergy; activity as a single agent ([3]; single agent): active as a single agent; synergy with JNJ-02 (ibrutinib) ([4]; combination with ibrutinib): synergizes; activity as a single agent ([4]; single agent): not active as a single agent"
C[C@]12C=CC(=O)C=C1CC[C@@H]1[C@@H]2[C@@H](O)C[C@@]2(C)[C@H]1CC[C@]2(O)C(=O)CO [prednisolone],strong synergy and good breadth of activity,–
rituximab,Synergy is observed,–
"siltuximab (antibody, chains of the INN, looked up, V domains shown) VH: EVQLVESGGKLLKPGGSLKLSCAASGFTFSSFAMSWFRQSPEKRLEWVAEISSGGSYTYYPDTVTGRFTISRDNAKNTLYLEMSSLRSEDTAMYYCARGLWGYYALDYWGQGTSVTVSS VL: QIVLIQSPAIMSASPGEKVTMTCSASSSVSYMYWYQQKPGSSPRLLIYDTSNLASGVPVRFSGSGSGTSYSLTISRMEAEDAATYYCQQWSGYPYTFGGGTKLEIK",not,–

# From patent US20200368235A1, “IBRUTINIB COMBINATION THERAPY” (Pharmacyclics LLC, priority 2013, published 2020)
